Laboratory results as given in PMC7365463, “Oxfendazole mediates macrofilaricidal efficacy against the filarial nematode Litomosoides sigmodontis in vivo and inhibits Onchocerca spec. motility in vitro” (PLoS Neglected Tropical Diseases, 2020).
Where two headings read alike, the source gives them in different places.

Columns and labels:
[1] = test system: Onchocerca gutturosa adult male worms; assay: O. gutturosa adult male worm 5-day motility assay
[2] = test system: Onchocerca gutturosa adult male worms; assay: O. gutturosa adult worm MTT/formazan viability assay; conditions: 120 h
[3] = test system: Onchocerca lienalis microfilariae; assay: O. lienalis microfilariae 5-day motility assay; conditions: 120 h
[4] = Plasma pharmacokinetics in mice (oral and subcutaneous); format: in vivo, BALB/c mice; conditions: for AUC(0-t) / Cmax / Tmax / half-life: female, BALB/c, mouse, plasma
Method: Female BALB/c mice (6 to 9-weeks old) were used to determine the plasma concentrations of oxfendazole. Animals were allocated to groups of three animals per dose, such that the mean weight of animals in each group was similar. All animals had access to a certified rodent diet (Beijing Keao […] Co, Ltd) and water ad libitum. In this study, all animals were fasted 12 h before dosing and returned to food 4 h post dose. Commercially available oxfendazole (Sigma Aldrich and Dolthene, Merial) was administered to animals. […] A commercially available formulation of oxfendazole, Dolthene, was diluted in corn oil and administered by oral gavage. After administration of the drug substances by oral gavage, blood samples were collected from each animal via the saphenous or mandibular veins at 0.25, 0.5, 1, 2, 4, 8, 12 and 24 h post dosing. For administration via the sc route, samples were collected from each animal 1, 3, 6, 9, 12, 18, 24, 36, 48, 72, 96, and 120 h post dosing. All samples were transferred into plastic tubes containing K2-EDTA (0.5 M) as an anti-coagulant and stored on ice until plasma preparation by centrifugation at 5°C (3000 g, 15 min). Analysis was conducted by LC-MS/MS (API 4000). Mobile phases were mixtures of acetonitrile (ACN) and water to which formic acid and 1 mM NH4OAc were added (0.025%, v/v). The ratio ACN/water was 5:95 (v/v) in the mobile phase A and 95:5 (v/v) in the mobile phase B. […] Electrospray positive ionization with selected ion MS/MS monitoring was used for the determination of oxfendazole: m/z 316.0/159.1.

[5] = parameters: method as in PMID 25701764; conditions: rat, published data; cited from earlier work
[6] = parameters: method as in PMID 30745383; conditions: daily doses up to 60 mg/kg; cited from earlier work
Brugia pahangi [7] = conditions: jirds, necropsy 5 weeks p.t., ref Surin 1990 (Ref. 11), cited from earlier work
Litomosoides sigmodontis [8] = test system: Litomosoides sigmodontis; parameters: method as in Reddy 1983 (Ref. 15); conditions: L3 (mite), Mastomys natalensis, patent phase, necropsy 43 days p.t., ref Reddy 1983 (Ref. 15), cited from earlier work
Brugia pahangi [9] = test system: Brugia pahangi; parameters: method as in Reddy 1983 (Ref. 15); conditions: L3 (SC), Mastomys natalensis, patent phase, necropsy 43 days p.t., ref Reddy 1983 (Ref. 15), cited from earlier work
[10] = rats; cited from earlier work
Litomosoides sigmodontis [11] = assay: Patent L. sigmodontis infection in jirds (adult worms, microfilaremia, embryogenesis); conditions: for jirds with few microfilariae in the peripheral blood: between weeks 14 and 16 after treatment
[12] = PO, nominal dose 5 mg/kg (administered 4.8)
[13] = PO, nominal dose 25 mg/kg (administered 26.3)
[14] = SC, nominal dose 1 mg/kg (administered 1.0)
[15] = SC, nominal dose 25 mg/kg (administered 27.5)

With COC(=O)Nc1nc2ccc([S+]([O-])c3ccccc3)cc2[nH]1 (stereo not shown) [oxfendazole] the “Motility Reduction (%)” value ([1]; 1.25 x 10^-5 M, 24 h) was 10%, the “Motility Reduction (%)” value ([1]; 1.25 x 10^-5 M, 48 h) was 3% and the “Motility Reduction (%)” value ([1]; 1.25 x 10^-5 M, 72 h) was 23%. For the same molecule, the “Motility Reduction (%)” value ([1]; 1.25 x 10^-5 M, 96 h) was 31%, the “Motility Reduction (%)” value ([1]; 1.25 x 10^-5 M, 120 h) was 40% and the “Motility Reduction (%)” value ([1]; 3.1 x 10^-6 M, 24 h) was 10%. For the same molecule, the “Motility Reduction (%)” value ([1]; 3.1 x 10^-6 M, 48 h) was 5%, the “Motility Reduction (%)” value ([1]; 3.1 x 10^-6 M, 72 h) was 33% and the “Motility Reduction (%)” value ([1]; 3.1 x 10^-6 M, 96 h) was 31%. For the same molecule, the “Motility Reduction (%)” value ([1]; 3.1 x 10^-6 M, 120 h) was 40%, the “Motility Reduction (%)” value ([1]; 5.0 x 10^-5 M, 24 h) was 16% and the “Motility Reduction (%)” value ([1]; 5.0 x 10^-5 M, 48 h) was 9%. The “Motility Reduction (%)” value ([1]; 5.0 x 10^-5 M, 72 h) was 29%, the “Motility Reduction (%)” value ([1]; 5.0 x 10^-5 M, 96 h) was 33% and the “Motility Reduction (%)” value ([1]; 5.0 x 10^-5 M, 120 h) was 44%. For the same molecule, the “Motility Reduction (%)” value ([1]; 7.8 x 10^-7 M, 24 h) was 4%, the “Motility Reduction (%)” value ([1]; 7.8 x 10^-7 M, 48 h) was 5% and the “Motility Reduction (%)” value ([1]; 7.8 x 10^-7 M, 72 h) was 20%. For the same molecule, the “Motility Reduction (%)” value ([1]; 7.8 x 10^-7 M, 96 h) was 31%, the “Motility Reduction (%)” value ([1]; 7.8 x 10^-7 M, 120 h) was 38% and the “MTT Reduction (%)” value ([2]; 1.25 x 10^-5 M) was 12%. For the same molecule, the “MTT Reduction (%)” value ([2]; 3.1 x 10^-6 M) was 17%, the “MTT Reduction (%)” value ([2]; 5.0 x 10^-5 M) was 11% and the “MTT Reduction (%)” value ([2]; 7.8 x 10^-7 M) was 7%. The microfilariae motility decrease ([3]; 1.25·10^−5 M) was 53%, the microfilariae motility decrease ([3]; 5·10^−5 M) was 67% and the “effect on microfilariae motility” value ([3]; concentrations lower than 1.25·10^−5 M) was “No effect”. For the same molecule, the “Cmax oral versus sc” value ([4]; 25 mg/kg, higher in the oral treated group) was “about 6 times”, the AUC(0-t) [4, 12] was 14700 ng·h/mL and the Cmax [4, 12] was 2530 ng/mL. The Tmax [4, 12] was 1.67 h, the half-life ([4]; PO, nominal dose 5 mg/kg (administered 4.8), read-out: T1/2 (converted)) was 2.87 h and the AUC(0-t) [4, 13] was 50300 ng·h/mL. The Cmax [4, 13] was 8590 ng/mL, the Tmax [4, 13] was 2 h and the half-life ([4]; PO, nominal dose 25 mg/kg (administered 26.3), read-out: T1/2 (converted)) was 1.87 h. For the same molecule, the AUC(0-t) [4, 14] was 1280 ng·h/mL, the Cmax [4, 14] was 131 ng/mL and the Tmax [4, 14] was 1.67 h. It also gave a half-life ([4]; SC, nominal dose 1 mg/kg (administered 1.0), read-out: T1/2 (converted)) of 24.8 h, an AUC(0-t) [4, 15] of 20800 ng·h/mL and a Cmax [4, 15] of 1450 ng/mL. The Tmax [4, 15] was 2.33 h, the half-life ([4]; SC, nominal dose 25 mg/kg (administered 27.5), read-out: T1/2 (converted)) was 76 h and the Cmax ([4]; oral administration of 5 mg/kg) was 8 µM. The Cmax ([4]; oral administration of 25 mg/kg) was 27 µM, the Tmax ([4]; other: oral and sc, all groups (oral and sc)) was about 2 h and the half-life ([4]; other: oral and sc, both routes of administration, read-out: half-life T1/2 during the first 12 h (converted)) was about 2 h. The “AUC0-last oral versus sc” value ([4]; higher when administered orally) was 2.4 times, the “terminal half-life sc versus T1/2 by oral route” value ([4]; terminal phase starting 12 h after dosing, longer for sc) was about 40 times and the “Half-Life (HL), via predicted Vss/CL” value (human) was 14.4 h. The “Half-Life (HL), dog-hum correlation” value (human prediction) was 4.2 h, the “Half-Life (HL), rat-hum correlation” value (human prediction) was 12.1 h and the “predicted human clearance as share of liver blood flow” value (human prediction) was ~ 2 % liver blood flow. The “Bioavailability (F)” value [5] was about 35%, the “tolerability in healthy volunteers” value [6] was “acceptable side effects” and the “Reduction of worm burden” value (Brugia pahangi [7]; 15Ad (IP), SC 50-25-12.5mg/kg 5 cons. days, 4 days p.i.) was 100%. The “Reduction of worm burden” value (Brugia pahangi [7]; 50L3 (IP), SC 25mg/kg 5 cons. days, 70 days p.i.) was 93.5%, the “Reduction of worm burden” value (Brugia pahangi [7]; 50L3 (IP), SC 50mg/kg 5 cons. days, 70 days p.i.) was 100% and the “Reduction of worm burden” value (Litomosoides sigmodontis [8]; SC 100mg/kg 5 cons. days) was 100%. The “Reduction of worm burden” value (Litomosoides sigmodontis [8]; per os 150mg/kg 5 cons. days) was 0%, the “Reduction of worm burden” value (Brugia pahangi [9]; SC 100mg/kg 5 cons. days) was 0% and the “Reduction of worm burden” value (Brugia pahangi [9]; per os 150mg/kg 5 cons. days) was 33%. The “subacute toxicity, behavioral effects” value [10] was “did not raise safety concerns”, the “jirds with few microfilariae in the peripheral blood” value (Litomosoides sigmodontis [11]; 2 x 5 mg/kg BID PO 10 days) was “one jird out of four” and the “jirds with few microfilariae in the peripheral blood” value (Litomosoides sigmodontis [11]; 2 x 12.5 mg/kg BID PO 10 days) was “one jird out of five”. The “embryogenesis in recovered female worms (embryogram)” value (Litomosoides sigmodontis [11]; jirds, 2 x 5 mg/kg BID PO 10 days, 16 weeks after treatment start) was “embryogenesis was inhibited”, the “animals with complete clearance of adult worms” value (Litomosoides sigmodontis [11]; jirds, PO BID 2 x 5 mg/kg for 10 days from 12 wpi, 16 weeks after treatment start) was “two animals out of four” and the “animals with complete clearance of adult worms” value (Litomosoides sigmodontis [11]; jirds, PO BID 2 x 12.5 mg/kg for 10 days from 12 wpi, 16 weeks after treatment start) was “four animals out of five”. For the same molecule, the “microfilariae cleared from the peripheral blood” value (Litomosoides sigmodontis [11]; jirds, both oxfendazole groups (2 x 12.5 and 2 x 5 mg/kg BID PO 10 days), 3 weeks after treatment) was “more than 99%”.
